ChEMBL document CHEMBL6121000, “Corosolic acid and its derivatives targeting MCCC1 against insulin resistance and their hypoglycemic effect on type 2 diabetic mice” (Eur J Med Chem, 2025)
≈ marks a conversion by molar mass, not a printed value. Calls of active or inactive are those of the source. No cut-off for these calls is given here.

Columns and labels:
Mus musculus [1] = experiment: Hypoglycemic activity in HFD-fed STZ-induced diabetic C57BL/6J mouse model assessed as reduction in glucose production at 10 to 20 mg/kg, po administered everyday for 3 weeks; type: functional, organism-based; details: dose 10-20 mg/kg
[2] = Solubility of compound in PBS; type: physicochemical
[3] = Toxicity in Sprague-Dawley rat assessed as inflammatory cell infiltration in colon tissue at 20 mg/kg, po for 5 days; type: organism-based; details: in vivo, 120 h, time 5 day
[4] = Toxicity in Sprague-Dawley rat assessed as damage in colon at 20 mg/kg, po for 5 days; type: organism-based; details: in vivo, 120 h, time 5 day
HepG2 [5] = experiment: Inhibition of insulin resistance in human HepG2 cells assessed as decrease in GlcN-induced glucose production at 20 uM preincubated for 1 hr followed by GlcN treatment for 18 hrs and subsequent insulin stimulation for 20 mins; type: functional, cell-based; details: time 19.33 hrs
HepG2 [6] = experiment: Lipid lowering activity in human HepG2 cells assessed as reduction in FFA-induced triglyceride content at 20 uM preincubated for 1 hr followed by FFA treatment for 24 hrs; type: functional, cell-based; details: time 25.0 hrs
HepG2 [7] = experiment: Lipid lowering activity in human HepG2 cells assessed as inhibition of FFA-induced triglyceride content at 20 uM preincubated for 1 hr followed by FFA treatment for 24 hrs relative to control; type: functional
[8] = Toxicity in Sprague-Dawley rat assessed as damage in spleen at 20 mg/kg, po for 5 days; type: organism-based; details: in vivo, 120 h, time 5 day
HepG2 [9] = experiment: Induction of glucose uptake in human HepG2 cells assessed as increase in GlcN-reduced GLUT4 level at 2.5 to 20 uM preincubated for 1 hr followed by GlcN addition measured after 24 hrs by Western blot analysis; type: functional, cell-based; details: dose 2.5-20 µM, time 25.0 hrs
Mus musculus [10] = experiment: Hypoglycemic activity in HFD-fed STZ-induced diabetic C57BL/6J mouse model assessed as increase in hepatic glycogen synthesis at 10 to 20 mg/kg, po administered everyday for 3 weeks; type: functional, organism-based; details: dose 10-20 mg/kg
HepG2 [11] = experiment: Inhibition of insulin resistance in human HepG2 cells assessed as decrease in GlcN-induced glucose production at 40 uM preincubated for 1 hr followed by GlcN treatment for 18 hrs and subsequent insulin stimulation for 20 mins in presence of VPA by glucose oxidase-peroxidase assay; type: functional, cell-based; details: time 19.33 hrs
[12] = Toxicity in Sprague-Dawley rat assessed as reduction in number of crypts in colon tissue at 20 mg/kg, po for 5 days; type: organism-based; details: in vivo, 120 h, time 5 day
[13] = Cytotoxicity against human HepG2 cells assessed as cell viability at 80 uM incubated for 24 hrs by CCK8 assay relative to control; type: toxicity, cell-based; details: HepG2 cells, read-out: Activity
[14] = Toxicity in Sprague-Dawley rat assessed as damage in liver at 20 mg/kg, po for 5 days; type: organism-based; details: in vivo, 120 h, time 5 day
HepG2 [15] = experiment: Induction of glucose uptake in human HepG2 cells assessed as increase in GlcN-reduced AKT phosphorylation at 40 uM preincubated for 1 hr followed by GlcN addition measured after 18 hrs in presence of VPA by Western blot analysis; type: functional, cell-based; details: time 19.0 hrs
[16] = Toxicity in Sprague-Dawley rat assessed as damage in heart at 20 mg/kg, po for 5 days; type: organism-based; details: in vivo, 120 h, time 5 day
HepG2 [17] = experiment: Inhibition of insulin resistance in human HepG2 cells assessed as restoration of GlcN-reduced MCCC1 level at 40 uM preincubated for 1 hr followed by GlcN treatment for 18 hrs by Western blot analysis; type: functional, cell-based; details: time 19.0 hrs
Mus musculus [18] = experiment: Hypoglycemic activity in 12 hr-fasted STZ-induced diabetic C57BL/6J mouse model assessed as decrease in blood glucose level at 20 mg/kg, po measured for 30 to 90 mins by insulin tolerance test; type: functional, organism-based; details: time 30-90 min
HepG2 [19] = experiment: Induction of glucose uptake in human HepG2 cells assessed as increase in GlcN-reduced GSK-3beta phosphorylation at 2.5 to 20 uM preincubated for 1 hr followed by GlcN addition measured after 24 hrs by Western blot analysis; type: functional, cell-based; details: dose 2.5-20 µM, time 25.0 hrs
[20] = Toxicity in Sprague-Dawley rat assessed as damage in lungs at 20 mg/kg, po for 5 days; type: organism-based; details: in vivo, 120 h, time 5 day
[21] = target: T1, Methylcrotonoyl-CoA carboxylase subunit alpha, mitochondrial (Homo sapiens) (UniProt Q96RQ3); experiment: Binding affinity to MCCC1 in human HepG2 cells assessed as reduction in pronase-mediated MCCC1 degradation at 40 to 80 uM preincubated for 1 hr followed by pronase addition measured after 10 mins by DARTS assay; type: cell-based; details: dose 40-80 µM, time 70.0 min
T1 sequence (whole entry): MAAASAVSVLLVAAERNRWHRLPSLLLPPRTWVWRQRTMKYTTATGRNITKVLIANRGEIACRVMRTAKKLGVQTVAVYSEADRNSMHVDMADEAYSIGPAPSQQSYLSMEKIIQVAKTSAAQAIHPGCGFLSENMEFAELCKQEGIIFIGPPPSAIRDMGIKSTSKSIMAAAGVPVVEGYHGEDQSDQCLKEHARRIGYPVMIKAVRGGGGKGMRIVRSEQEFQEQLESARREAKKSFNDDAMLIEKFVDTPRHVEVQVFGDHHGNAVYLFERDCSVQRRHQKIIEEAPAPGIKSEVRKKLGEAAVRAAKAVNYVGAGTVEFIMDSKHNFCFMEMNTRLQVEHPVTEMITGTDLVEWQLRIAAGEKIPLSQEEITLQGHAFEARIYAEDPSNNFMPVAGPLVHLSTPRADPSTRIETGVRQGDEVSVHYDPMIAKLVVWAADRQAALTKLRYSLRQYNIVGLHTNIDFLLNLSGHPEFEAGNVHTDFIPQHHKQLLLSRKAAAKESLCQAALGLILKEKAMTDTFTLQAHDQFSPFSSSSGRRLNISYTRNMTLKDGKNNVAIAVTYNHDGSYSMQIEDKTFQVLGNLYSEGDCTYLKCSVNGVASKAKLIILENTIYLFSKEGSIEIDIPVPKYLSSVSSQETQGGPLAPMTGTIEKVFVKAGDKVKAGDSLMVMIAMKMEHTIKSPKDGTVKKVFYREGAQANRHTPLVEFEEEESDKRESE

[22] = target: T1, Methylcrotonoyl-CoA carboxylase subunit alpha, mitochondrial (Homo sapiens); experiment: Binding affinity to MCCC1 in human HepG2 cells assessed as thermal stability at 40 uM incubated for 1 hr followed by heat exposure for 3 mins by CETSA; type: cell-based
HEK293 = experiment: Cytotoxicity against HEK293 cells assessed as cell viability at 40 to 320 uM incubated for 24 hrs by CCK8 assay relative to control; type: toxicity, cell-based; details: human, hek293, 24 h, dose 40-320 µM
HepG2 [23] = experiment: Inhibition of insulin resistance in human HepG2 cells assessed as restoration of GlcN-reduced MCCC1 level at 40 uM preincubated for 1 hr followed by GlcN treatment for 18 hrs in presence of VPA by Western blot analysis; type: functional, cell-based; details: time 19.0 hrs
Mus musculus [24] = experiment: Hypoglycemic activity in HFD-fed STZ-induced diabetic C57BL/6J mouse model assessed as increase in AKT phosphorylation in liver at 10 to 20 mg/kg, po administered everyday for 3 weeks by Western blot analysis; type: functional, organism-based; details: dose 10-20 mg/kg
Mus musculus [25] = experiment: Hypoglycemic activity in HFD-fed STZ-induced diabetic C57BL/6J mouse model assessed as decrease in blood glucose level at 10 to 20 mg/kg, po administered everyday for 3 weeks; type: functional, organism-based; details: dose 10-20 mg/kg
HepG2 [26] = experiment: Induction of glucose uptake in human HepG2 cells assessed as increase in GlcN-reduced AKT phosphorylation at 2.5 to 20 uM preincubated for 1 hr followed by GlcN addition measured after 24 hrs by Western blot analysis; type: functional, cell-based; details: dose 2.5-20 µM, time 25.0 hrs
Mus musculus [27] = experiment: Hypoglycemic activity in 12 hr-fasted STZ-induced diabetic C57BL/6J mouse model assessed as decrease in AUC of blood glucose level at 20 mg/kg, po measured upto 120 mins by insulin tolerance test relative to control; type: functional; parameters: scale not given: the % may be the effect or the level left; details: 2 h
Mus musculus [28] = experiment: Hypoglycemic activity in HFD-fed STZ-induced diabetic C57BL/6J mouse model assessed as reversal of diabetes-reduced MCCC1 level in liver at 10 to 20 mg/kg, po administered everyday for 3 weeks by Western blot analysis; type: functional, organism-based; details: dose 10-20 mg/kg
Mus musculus [29] = experiment: Hypoglycemic activity in HFD-fed STZ-induced diabetic C57BL/6J mouse model assessed as improvement in triglyceride level in liver at 10 to 20 mg/kg, po administered everyday for 3 weeks; type: functional, organism-based; details: dose 10-20 mg/kg
Mus musculus [30] = experiment: Hypoglycemic activity in HFD-fed STZ-induced diabetic C57BL/6J mouse model assessed as improvement in total cholesterol level in liver at 10 to 20 mg/kg, po administered everyday for 3 weeks; type: functional, organism-based; details: dose 10-20 mg/kg
Mus musculus [31] = experiment: Hypoglycemic activity in HFD-fed STZ-induced diabetic C57BL/6J mouse model assessed as increase in GLUT4 level in liver at 10 to 20 mg/kg, po administered everyday for 3 weeks by Western blot analysis; type: functional, organism-based; details: dose 10-20 mg/kg
Mus musculus [32] = experiment: Hypoglycemic activity in HFD-fed STZ-induced diabetic C57BL/6J mouse model assessed as improvement in weight loss at 10 to 20 mg/kg, po administered everyday for 3 weeks; type: functional, organism-based; details: dose 10-20 mg/kg
HepG2 [33] = experiment: Inhibition of insulin resistance-associated inflammation in human HepG2 cells assessed as increase in GlcN-reduced I-kaapaB-alpha level at 2.5 to 20 uM preincubated for 1 hr followed by GlcN addition measured after 24 hrs by Western blot analysis; type: functional, cell-based; details: dose 2.5-20 µM

C[C@H]1[C@H](C)CC[C@]2(C(=O)NCC(=O)O)CC[C@]3(C)C(=CC[C@@H]4[C@@]5(C)C[C@@H](O)[C@H](O)C(C)(C)[C@@H]5CC[C@]43C)[C@H]12
Activity (Mus musculus [1]): Active | solubility [2]: 3.98 mM (≈ 2110 µg/mL) | Activity [3]: Non-toxic | Activity [4]: Non-toxic | inhibition (HepG2 [5]): Active | Activity (HepG2 [6]): Active | inhibition at 20 µM (HepG2 [7]): 59.5% | Activity [8]: Non-toxic | Activity (HepG2 [9]): Active | Activity (Mus musculus [10]): Active | inhibition (HepG2 [11]): inactive | Activity [12]: Non-toxic | viability at 24 h, 80 µM [13]: > 80% | Activity [14]: Non-toxic | Activity (HepG2 [15]): inactive | Activity [16]: Non-toxic | inhibition (HepG2 [17]): Active | Activity (Mus musculus [18]): Active | Activity (HepG2 [19]): Active | Activity [20]: Non-toxic | Activity [21]: Active | Activity [22]: Active | Activity (HEK293): Non-toxic | inhibition (HepG2 [23]): inactive | Activity (Mus musculus [24]): Active | Activity (Mus musculus [25]): Active; Activity Similar To Metformin At 200 Mg/Kg | Activity (HepG2 [26]): Active | Activity (Mus musculus [27]): 19.4% | Activity (Mus musculus [28]): Active | Activity (Mus musculus [29]): Active | Activity (Mus musculus [30]): Active | Activity (Mus musculus [31]): Active | Activity (Mus musculus [32]): Active | inhibition (HepG2 [33]): Active
